{
  "source": "patent US4668703A",
  "about": "“γ-allenyl-γ-aminobutyric acids” (Syntex (U.S.A.) Inc., priority 1985, dated 1987)",
  "key": {"[1]": {"assay": "Toxicity test (acute, oral, mouse)", "format": "in vivo", "conditions": "mouse, in vivo, po; male mice, CMC vehicle, observed for 21 days", "method": "(§1) 4-amino-5,6-heptadienoic acid prepared in CMC vehicle was administered once daily to groups of 6 male mice at doses of 0, 62.5, 125, 250 and 500 mg/Kg. […] Therefore, the LD50 (acute, oral, mouse) for 4-amino-5,6-heptadienoic acid is greater than 500 mg/Kg."}, "mouse": {"test_system": "mouse", "assay": "Toxicity test (acute, oral, mouse)", "format": "in vivo", "conditions": "male mice, once daily, 62.5, 125, 250 and 500 mg/Kg, observed for 21 days", "method": "as §1"}, "[2]": {"test_system": "γ-aminobutyric acid transaminase", "conditions": "cited from earlier work"}, "[3]": {"test_system": "brain level of γ-aminobutyric acid", "conditions": "in animals; cited from earlier work"}, "C. elegans": {"test_system": "C. elegans", "assay": "C. elegans assay", "conditions": "Caenorhabditis elegans, read-out: % Active", "method": "The compounds tested were dissolved in DMSO at 10 mg/ml to give sample stock solutions. During assay, 1 ml M9 buffer (6 g Na2 HPO4, 3 g KH2 PO4, 5 g NaCl, and 0.25 g MgSO4 H2 O per liter) was placed in each of the 24-wells in a tissue culture plate. 10 μl of sample stock solution was added respectively to each of 23 wells. The remaining well served as drug-free control.\nAt time 0, 1 drop of C. elegans suspension was dropped into each well (25-50 adults). At 1 hour, the number of active worms versus total in each well was recorded."}, "N. Brasiliensis": {"test_system": "N. Brasiliensis", "assay": "N. Brasiliensis assay, third larval stage", "conditions": "50 μg/ml, 37° C., control 100%, read-out: Percent Viable", "method": "The compound was tested at 50 μg/ml against the third larval stage of N. Brasiliensis at approximately 50 L3 /well; this mixture was incubated at 37° C. for total of 7 days. Activity of the compound was checked on days 1, 4. and 7 post-inoculation."}},
  "note": "Structures can show the parent of a compound that is named as a salt. Where two headings read alike, the source gives them in different places.",
  "data": [
    {"smiles": "C=C=CC(N)CCC(=O)O", "note": "(stereo not shown) [4-amino-5,6-heptadienoic acid]", "values": [
      {"measurement": "LD50 at 504 h", "setting": "[1]", "result": "> 500", "unit": "mg/kg"},
      {"measurement": "deaths", "setting": "mouse", "result": "no deaths"}
    ]},
    {"smiles": "NC(CF)CCC(=O)O", "note": "(stereo not shown) [γ-monofluoromethyl-γ-aminobutyric acid]", "values": [
      {"measurement": "irreversible inhibitors of γ-aminobutyric acid transaminase", "setting": "[2]", "result": "potent irreversible inhibitors"},
      {"measurement": "increase of the brain level of γ-aminobutyric acid", "setting": "[3]", "result": "significantly increase"}
    ]},
    {"smiles": "C=C=C(C)C(N)CCC(=O)OCCCCCCCC", "note": "(stereo not shown) [Octyl 4-amino-5-methyl-5,6-heptanoate, octyl-4-amino-5-methyl-5,6-heptadienoate para-toluene-sulfonic acid salt]", "values": [
      {"measurement": "activity at 100 µg/mL", "setting": "C. elegans; 1 h", "result": 25, "unit": "%"}
    ]},
    {"smiles": "C=CC(N)CCC(=O)O", "note": "(stereo not shown) [γ-vinyl-γ-aminobutyric acid]", "values": [
      {"measurement": "irreversible inhibitors of γ-aminobutyric acid transaminase", "setting": "[2]", "result": "potent irreversible inhibitors"},
      {"measurement": "increase of the brain level of γ-aminobutyric acid", "setting": "[3]", "result": "significantly increase"}
    ]},
    {"smiles": "C#CC(N)CCC(=O)O", "note": "(stereo not shown) [γ-acetylenic]", "values": [
      {"measurement": "irreversible inhibitors of γ-aminobutyric acid transaminase", "setting": "[2]", "result": "potent irreversible inhibitors"},
      {"measurement": "increase of the brain level of γ-aminobutyric acid", "setting": "[3]", "result": "significantly increase"}
    ]},
    {"smiles": "C=C=CC(N)CCC(=O)OCCCCCCCC", "note": "(stereo not shown) [Octyl 4-amino-5,6-heptadienoate para-toluene sulfonic acid salt]", "values": [
      {"measurement": "activity at 100 µg/mL", "setting": "C. elegans; active worms versus total at 1 hour, 10 μl of 10 mg/ml DMSO stock added to 1 ml M9 buffer, control 100%", "result": 45, "unit": "%"},
      {"measurement": "viability at 50 µg/mL", "setting": "N. Brasiliensis; 24 h, day 1", "result": 64, "unit": "%"},
      {"measurement": "viability at 50 µg/mL", "setting": "N. Brasiliensis; 96 h, day 4", "result": 0, "unit": "%"},
      {"measurement": "viability at 50 µg/mL", "setting": "N. Brasiliensis; 168 h, day 7", "result": 0, "unit": "%"}
    ]}
  ]
}
